Several values for one entry are separate records, joined by “and”; a condition that tells them apart may be missing. Identical values can stand only once. Counter-ions that a name gives are not always drawn. Like-named read-outs stand apart in the source and are kept apart here. Where a SMILES comes first, the peptide text is derived from it.
System: cytochrome c
Type: cell-based, mouse
[1] = composite Z-score vs mock-treated (DMSO) wells, concentration of each compound in μM
[2] = normalized score (composite Z-score vs DMSO mock-treated wells), compound concentration (μM)

Row | SMILES | cyt c | cyt c [1] | also measured
1 | CC(=C(CCO)SSCC1CCCO1)N(C=O)Cc1cnc(C)nc1N (stereo in doubt) [fursultiamine] | 0.477 |  | 
2 | NC1(C(=O)O)CCC1 [1-aminocyclobutane carboxylic acid] | −0.335 |  | 
3 | NCC(CC(=O)O)c1ccc(Cl)s1 (stereo not drawn) [4-amino-3-(5-chlorothien-2-yl)butanoic acid] |  | 0.593 | 
4 | Cc1cc(O)cc(=O)o1 [4-hydroxy-6-methylpyran-2-one] | −0.316 |  | 
5 | COc1ccc(-c2cc(=O)c3c(OC)cc(O)cc3o2)cc1 [5,4′-dimethoxy-7-hydroxyflavone] |  | 0.173 | 
6 | NCCCCCC(=O)O [6-aminocaproic acid] |  |  | cyt c (composite Z-score vs DMSO mock-treated wells): −0.680
7 | Cc1n[nH]c(=O)[nH]c1=O [6-azathymine] | 0.583 |  | 
8 | Nc1c2c(nc3ccccc13)CCCC2 [9-amino-1,2,3,4-tetrahydroacridine] |  |  | cyt c (composite Z-score vs DMSO): 0.967
9 | CC(=O)N[C@@H](CC(C)C)C(=O)O [N-acetyl-L-leucine] | 0.648 |  | 
10 | CC(=O)N[C@@H](CC(=O)O)C(=O)N[C@@H](CCC(=O)O)C(=O)O [N-acetylaspartylglutamic acid] (Ac-Asp-Glu-OH) |  | 0.480 | 
11 | N[C@@H](Cc1c[nH]cn1)C(=O)Nc1ccc2ccccc2c1 [N-histidyl-2-aminonaphthalene] |  | 0.214 | 
12 | CNc1ccccc1C(=O)O [N-methylanthranilic acid] | 0.299 |  | 
13 | CC(=O)Nc1ccccc1 [acetanilide] |  |  | cyt c (composite Z-score vs DMSO): 0.532
14 | CC(=O)Nc1nnc(S(N)(=O)=O)s1 [acetazolamide] |  |  | cyt c (composite Z-score vs DMSO): 0.698 and 0.613
15 | NCCCCCC(=O)O [aminocaproic acid] |  |  | cyt c (composite Z-score vs DMSO mock-treated wells): 0.280
16 | NC1(C(=O)O)CC1 [aminocyclopropanecarboxylic acid] |  |  | cyt c (composite Z-score vs DMSO): 0.213
17 | Cn1c(=O)c2[nH]cnc2n(C)c1=O [aminophylline] |  |  | cyt c (composite Z-score vs DMSO): 0.177
18 | CCOC(=O)C1=C(COCCN)NC(C)=C(C(=O)OC)C1c1ccccc1Cl (stereo not drawn) [amlodipine] |  | 0.902 | 
19 | CC(C)NCC(O)COc1ccc(CC(N)=O)cc1 (stereo not drawn) [atenolol, reference compound] |  |  | cyt c (composite Z-score vs DMSO): 0.403
20 | CC(C)c1c(C(=O)Nc2ccccc2)c(-c2ccccc2)c(-c2ccc(F)cc2)n1CC[C@@H](O)C[C@@H](O)CC(=O)O [atorvastatin, reference compound] | −1.023 |  | 
21 | O=C1C(O)=C([C@H]2CC[C@H](c3ccc(Cl)cc3)CC2)C(=O)c2ccccc21 [atovaquone] |  | −0.124 | 
22 | COc1ccc(CC2c3cc(OC)c(OC)cc3CC[N+]2(C)CCC(=O)OCCCCCOC(=O)CC[N+]2(C)CCc3cc(OC)c(OC)cc3C2Cc2ccc(OC)c(OC)c2)cc1OC (stereo not drawn) [atracurium] |  | 1.176 | 
23 | CN1[C@@H]2CC[C@H]1C[C@@H](OC(=O)C(CO)c1ccccc1)C2 (stereo partly drawn) [atropine sulfate] | 0.071 |  | 
24 | CN1[C@@H]2CC[C@H]1C[C@@H](OC(=O)C(CO)c1ccccc1)C2 (stereo partly drawn) [atropine] | 1.709 |  | 
25 | CCCC1C(=O)N2C(N(C)C)=Nc3ccc(C)cc3N2C1=O (stereo not drawn) [azapropazone] | 0.418 |  | 
26 | CN1CCCC(n2nc(Cc3ccc(Cl)cc3)c3ccccc3c2=O)CC1 (stereo not drawn) [azelastine] |  | 0.054 | 

Row | SMILES | cyt c | cyt c [1] | also measured
27 | CN1[C@@H]2CC[C@H]1C[C@@H](OC(c1ccccc1)c1ccccc1)C2 [benztropine] |  |  | cyt c (composite Z-score vs DMSO mock-treated wells): −1.170
28 | O=C(OCc1ccccc1)c1ccccc1 [benzyl benzoate] |  |  | cyt c (composite Z-score vs DMSO): 0.394
29 | COc1c(O)cc2c(c1O)[C@@H]1O[C@H](CO)[C@@H](O)[C@H](O)[C@H]1OC2=O [bergenin] |  | 0.831 | 
30 | CC1=C(/C=C/C(C)=C/C=C/C(C)=C/C=C/C=C(C)/C=C/C=C(C)/C=C/C2=C(C)CCCC2(C)C)C(C)(C)CCC1 [beta-carotene] | 0.027 |  | 
31 | CC(C)NCC(O)COc1ccc(CCOCC2CC2)cc1 (stereo not drawn) [betaxolol] | 0.064 |  | 
32 | c1ccc(-c2ccc(C(c3ccccc3)n3ccnc3)cc2)cc1 (stereo not drawn) [bifonazole] | 0.179 |  | 
33 | CC(C)NCC(O)COc1ccc(COCCOC(C)C)cc1 (stereo not drawn) [bisoprolol] |  |  | cyt c [2]: 0.874
34 | CC[N+](C)(C)Cc1ccccc1Br [bretylium] | 0.560 |  | cyt c (composite Z-score): 0.295
35 | O=C1CC2(CCCC2)CC(=O)N1CCCCN1CCN(c2ncccn2)CC1 [buspirone] | 0.228 |  | 
36 | Cn1c(=O)c2c(ncn2C)n(C)c1=O [caffeine] |  |  | cyt c (composite Z-score vs DMSO): 0.292
37 | N=C(N)NOCC[C@H](N)C(=O)O [canavanine] |  | −0.321 | 
38 | C[C@]12CCC(=O)C=C1C=C[C@@H]1[C@@H]2CC[C@@]2(C)[C@H]1CC[C@@]21CCC(=O)O1 [canrenone] |  | 0.816 | 
39 | CC1(C)[C@@H](OC(=O)CCC(=O)O)CC[C@]2(C)[C@H]3C(=O)C=C4[C@@H]5C[C@@](C)(C(=O)O)CC[C@]5(C)CC[C@@]4(C)[C@]3(C)CC[C@@H]12 [carbenoxolone] | 0.145 |  | 
40 | COc1ccccc1OCCNCC(O)COc1cccc2[nH]c3ccccc3c12 (stereo not drawn) [carvedilol] |  | −4.745 | 
41 | C[C@@H]1CC[C@H]2C(C)(C)[C@H]3C[C@@]12CC[C@@]3(C)O [cedrol] | −0.218 |  | 
42 | NC(=O)c1cc[n+](CC2=C(C(=O)O)N3C(=O)[C@@H](NC(=O)[C@@H](c4ccccc4)S(=O)(=O)[O-])[C@H]3SC2)cc1 [cefsulodin] |  | −1.078 | 
43 | CC(C)(O/N=C(\C(=O)N[C@@H]1C(=O)N2C(C(=O)[O-])=C(C[n+]3ccccc3)CS[C@H]12)c1csc(N)n1)C(=O)O [ceftazidime] |  | 0.740 | 
44 | O=C(Cc1cccs1)N[C@@H]1C(=O)N2C(C(=O)[O-])=C(C[n+]3ccccc3)CS[C@H]12 [cephaloridine] |  | −0.278 | 
45 | O=C(O)COCCN1CCN(C(c2ccccc2)c2ccc(Cl)cc2)CC1 (stereo not drawn) [cetirizine] | 0.507 |  | 
46 | CC(C)CCC[C@@H](C)[C@H]1CC[C@H]2[C@@H]3CC=C4CC(=O)CC[C@]4(C)[C@H]3CC[C@]12C [cholest-5-en-3-one] | 0.600 |  | 
47 | C[C@H](CCC(=O)O)[C@H]1CC[C@H]2[C@@H]3[C@H](O)C[C@@H]4C[C@H](O)CC[C@]4(C)[C@H]3C[C@H](O)[C@]12C [cholic acid] | 0.514 |  | 
48 | C[N+](C)(C)CCO [choline] |  |  | cyt c (composite Z-score vs DMSO): 0.713
49 | CN/C(=N/CCSCc1nc[nH]c1C)NC#N [cimetidine] | 0.794 and 0.587 |  | 
50 | C=C[C@H]1CN2CC[C@H]1C[C@H]2[C@H](O)c1ccnc2ccccc12 [cinchonidine] |  | −0.164 | 
51 | COc1cc(N)c(Cl)cc1C(=O)NC1CCN(CCCOc2ccc(F)cc2)CC1OC (stereo not drawn) [cisapride] |  |  | cyt c [2]: −0.495
52 | C[N+](C)(C)CCOP(=O)(O)OP(=O)([O-])OC[C@H]1O[C@@H](n2ccc(N)nc2=O)[C@H](O)[C@@H]1O [citicoline] |  | 0.322 | 

Row | SMILES | cyt c | cyt c [1] | also measured
53 | CCN(CC)CCOc1ccc(C(=C(Cl)c2ccccc2)c2ccccc2)cc1 [clomiphene] | 0.699 |  | cyt c (composite Z-score vs DMSO mock-treated wells): 0.025
54 | Nc1cc(C(Cl)=C(Cl)Cl)c(S(N)(=O)=O)cc1S(N)(=O)=O [clorsulon] | −0.186 |  | 
55 | C[C@]12C[C@H](O)[C@H]3[C@@H](CCC4=CC(=O)CC[C@@]43C)[C@@H]1CC[C@@H]2C(=O)CO [corticosterone] | −0.379 |  | 
56 | CC1(C)S[C@@H]2[C@H](NC(=O)C3(N)CCCCC3)C(=O)N2[C@H]1C(=O)O [cyclacillin] |  |  | cyt c (composite Z-score): −0.886
57 | O=P1(N(CCCl)CCCl)NCCCO1 (stereo not drawn) [cyclophosphamide] | −0.088 |  | 
58 | CN1CCC(=C2c3ccccc3C=Cc3ccccc32)CC1 [cyproheptadine] |  |  | cyt c (composite Z-score): 0.064
59 | C[C@]12CC[C@H](O)CC1=CC[C@@H]1[C@@H]2CC[C@]2(C)C(=O)CC[C@@H]12 [dehydroepiandrosterone] |  | −0.634 | 
60 | CN(CCCCCCCCCCN(C)C(=O)Oc1cccc([N+](C)(C)C)c1)C(=O)Oc1cccc([N+](C)(C)C)c1 [demecarium] |  | −0.211 | 
61 | COc1ccc(-c2cc(C(F)F)nn2-c2ccc(S(N)(=O)=O)cc2)cc1F [deracoxib] |  | 0.350 | 
62 | COc1cc(OC)c2c(=O)c(-c3ccc4c(c3)OCO4)coc2c1 [derrustone] |  | 0.470 | 
63 | NC[C@@H]1CC[C@@H](N)[C@@H](O[C@H]2[C@H](O)[C@@H](O[C@H]3O[C@H](CO)[C@@H](O)[C@H](N)[C@H]3O)[C@H](N)C[C@@H]2N)O1 [dibekacin] | 0.464 |  | 
64 | COc1c(Cl)ccc(Cl)c1C(=O)O [dicamba] | 0.278 |  | 
65 | Cc1onc(-c2c(Cl)cccc2Cl)c1C(=O)N[C@@H]1C(=O)N2[C@@H]1SC(C)(C)[C@@H]2C(=O)O [dicloxacillin sodium salt] | 0.836 |  | 
66 | COc1ccc([C@@H]2Sc3ccccc3N(CCN(C)C)C(=O)[C@@H]2OC(C)=O)cc1 [diltiazem] | 0.385 |  | cyt c (composite Z-score vs DMSO): −0.201
67 | CN(C)CCCSC(=N)N [dimaprit] |  |  | cyt c (composite Z-score): −0.184
68 | CCCCc1cc2ccccc2c(OCCN(C)C)n1 [dimethisoquin] |  | −1.006 | 
69 | CNC(=O)CSP(=S)(OC)OC [dimethoate] | 0.837 |  | 
70 | Cc1c(C(N)=O)cc([N+](=O)[O-])cc1[N+](=O)[O-] [dinitolmide] |  |  | cyt c (composite Z-score vs DMSO): 0.218
71 | CN1CCC(OC(c2ccccc2)c2ccccc2)CC1 [diphenylpyraline] | 0.321 and 0.558 |  | 
72 | CNCC(O)c1ccc(OC(=O)C(C)(C)C)c(OC(=O)C(C)(C)C)c1 (stereo not drawn) [dipivefrin] |  | −0.180 | 
73 | CC[C@H]1OC(=O)[C@H](C)[C@@H](O[C@H]2C[C@@](C)(OC)[C@@H](O)[C@H](C)O2)[C@H](C)[C@@H](O[C@@H]2O[C@H](C)C[C@H](N(C)C)[C@H]2O)[C@](C)(O)C[C@@H](C)[C@@H]2N[C@@H](COCCOC)O[C@H]([C@H]2C)[C@]1(C)O [dirithromycin] |  | 0.356 | 
74 | CC(CCc1ccc(O)cc1)NCCc1ccc(O)c(O)c1 (stereo not drawn) [dobutamine] |  | −0.289 | 
75 | O=c1[nH]c2ccccc2n1CCCN1CCC(n2c(=O)[nH]c3cc(Cl)ccc32)CC1 [domperidone] | 0.276 |  | 
76 | CCN[C@H]1C[C@H](C)S(=O)(=O)c2sc(S(N)(=O)=O)cc21 [dorzolamide] |  |  | cyt c (composite Z-score vs DMSO): −0.076
77 | CN(C)CCC=C1c2ccccc2COc2ccccc21 [doxepin] | 1.151 |  | cyt c (composite Z-score vs DMSO): −0.095
